# Laboratory results published in US20040116436A1, “Treatment of dementia and parkinson's disease” (priority 2002, published 2004).
# Like-named read-outs stand apart in the source and are kept apart here.
# Assays:
# [1] = Description: 30 C57B1/B6 type mice (8-12 weeks old) are allowed to acclimate for 12-14 days before experimental use.
# [2] = target: alpha 1A receptor (Homo sapiens, UniProt P35348); conditions: RSAT assay; alpha 2 subtypes versus alpha 1A
# [3] = system: dopaminergic neurons in the substantia nigra
# [4] = system: dopaminergic neurons in the ventral tegmental area; conditions: MPTP mice; brimonidine 3 mg/kg/day
# [5] = target: alpha 2B receptor (Homo sapiens, UniProt P18089); assay: cell-based
# Description: (§1) In contrast, a method for measuring alpha receptor agonist selectivity comprises the RSAT (Receptor Selection and Amplification Technology) assay as reported in Messier et al., High Throughput Assays Of Cloned Adrenergic, Muscarinic, Neurokinin And Neurotrophin Receptors In Living Mammalian Cells, Pharmacol. Toxicol. 76:308-11 (1995) and has been adapted for use with alpha 2 receptors. This publication is incorporated by reference herein. The assay measures a receptor-mediated loss of contact inhibition that results in selective proliferation of receptor-containing cells in a mixed population of confluent cells. The increase in cell number is assessed with an appropriate transfected marker gene such as b-galactosidase, the activity of which can be easily measured in a 96-well format. Receptors that activate the G protein, Gq, elicit this response. Alpha2 receptors, which normally couple to Gi, activate the RSAT response when coexpressed with a hybrid Gq protein that has a Gi receptor recognition domain, called Gq/i5^2. See Conklin et al., Substitution Of Three Amino Acids Switches Receptor Specificity Of Gqa To That Of Gia, Nature 363:274-6. (1993) This reference is hereby incorporated by reference herein.
# (§2) The data presented below was collected using the RSAT assay described above.
# (§3) Efficacy of a given receptor or receptor subtype in accordance with the present invention is determined using the RSAT assay procedure described above.
# [6] = target: alpha 2C receptor (Homo sapiens, UniProt P18825); assay: cell-based
# Description: as §1, §2, §3
# [7] = in vivo, ip
SMILES,"Open Field activity versus vehicle + MPTP group ([1]; 10 and 30 days post MPTP, brimonidine 3 mg/kg/day)","forelimb extension impairment, tail hang test ([1]; during the period that the compound is administered)","forelimb extension impairment, tail hang test ([1]; post-dosing (after 14 days of compound administration))",greater activity at each alpha 2 receptor subtype than at the alpha 1A receptor [2],"neuron loss in the substantia nigra versus MPTP-treated animals ([3]; MPTP mice, brimonidine 3 mg/kg/day)","Average Neuron Count (statistical error) ([3]; substantia nigra, TH-labeled neurons, 55-60 days post MPTP 40 mg/kg sc, brimonidine 3 mg/kg/day sc mini-pump 14 days)",reduction of MPTP-induced neuron loss in the Ventral Tegmental area [4],EC50 [5] [nM],EC50 [6] [nM],concentration at which sedative effect first becomes noticeable [7]
"Brc1c(NC2=NCCN2)ccc2nccnc12 [Brimonidine, brimonidine]",no significant difference between this group and the vehicle group,does not reduce this impairment,does tend to reduce the impairment,at least 5.5 fold,significantly less neuron loss,32 (±1),about 10%,,,
"Cc1cccc([C@H](C)c2cnc[nH]2)c1C [Dexmedetomidine, dexmedetomidine]",,,,,,,,2,1,
"Clc1ccc2nsnc2c1NC1=NCCN1 [Tizanidine, tizanidine]",,,,,,,,127,1690,about 100 micrograms/kg
